In one test the target is nicotine (Rattus norvegicus, UniProt P09483+P12390). Nature of the test: Receptor binding nicotine. The conditions noted are these: radioligand [3H]-cytisine, read-out: Ki(nM) Compound 1. The procedure: (§1) Receptor binding data were obtained by CEREP (128, rue Danton, 92500 Rueil-Malmaison, France) or at Solvay Pharmaceuticals B.V., using well documented standard procedures. Affinity for 5-HT1A receptors for instance, was determined by testing the ability of the compounds of the invention to displace [^3H]-2-(di-n-propylamino)-8-hydroxytetralin ([^3H]-8-OH-DPAT) from its specific binding sites in rat frontal cortex homogenates. This test is based on the method described by Gozlan et al. (Nature, 305, (1983), pages 140-142).
(§2) The binding data collected in the table below were either obtained by CEREP (128, rue Danton, 92500 Rueil-Malmaison, France) or at Solvay Pharmaceuticals B.V., using well documented standard procedures.

The target in a further test is Dopamine-D4 (Homo sapiens, UniProt P21917). Nature of the test: Receptor binding Dopamine-D4. The note with it: radioligand [3H]-spiperone, read-out: Ki(nM) Compound 1. The procedure:
as §1, §2

For a further test, the target named is Galanin-GAL2 (Homo sapiens, UniProt O43603). Briefly: Receptor binding Galanin-GAL2. The conditions noted are these: radioligand [125I]-galanin, read-out: Ki(nM) Compound 1. The procedure:
as §1, §2

For another test, the target named is Neurokinin-NK1 (Homo sapiens, UniProt P25103). Nature of the test: Receptor binding Neurokinin-NK1. The conditions noted are these: radioligand [3H]-substance P, read-out: Ki(nM) Compound 1. The procedure:
as §1, §2

For the next test, the target named is angiotensin-AT2 (Homo sapiens, UniProt P50052). Briefly: Receptor binding angiotensin-AT2. The conditions noted are these: radioligand [125I]-CPG 42112A, read-out: Ki(nM) Compound 1. The procedure:
as §1, §2

For a further test, the target named is 5-HT5 (Homo sapiens, UniProt P47898). Nature of the test: Receptor binding 5-HT5. The conditions noted are these: radioligand [3H]-LSD, read-out: Ki(nM) Compound 1. The method, then: as §1, §2
5-HT5, sequence (P47898 whole entry): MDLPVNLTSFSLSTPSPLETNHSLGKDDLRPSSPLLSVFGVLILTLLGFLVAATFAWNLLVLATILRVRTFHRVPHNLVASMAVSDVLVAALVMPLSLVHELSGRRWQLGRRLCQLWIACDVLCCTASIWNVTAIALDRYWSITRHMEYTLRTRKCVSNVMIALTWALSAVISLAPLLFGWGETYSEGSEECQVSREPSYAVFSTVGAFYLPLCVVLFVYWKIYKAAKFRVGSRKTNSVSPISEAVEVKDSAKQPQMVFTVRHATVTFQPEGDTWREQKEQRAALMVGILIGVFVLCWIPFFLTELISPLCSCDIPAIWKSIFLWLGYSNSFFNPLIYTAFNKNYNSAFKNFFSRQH
The target in a further test is Histamine-H3 (Rattus norvegicus, UniProt Q9QYN8). Briefly: Receptor binding Histamine-H3. The conditions noted are these: radioligand [3H]-α-methylhistamine, read-out: Ki(nM) Compound 1. The procedure:
as §1, §2

The next test addresses Dopamine-D3 (Homo sapiens, UniProt P35462). Briefly: Receptor binding Dopamine-D3. The conditions noted are these: radioligand [3H]-spiperone, read-out: Ki(nM) Compound 1. The method, then: as §1, §2
A further test deals with Prostaglandin-H2 (Homo sapiens, UniProt P21731). Nature of the test: Receptor binding Prostaglandin-H2. The note with it: radioligand [3H]-SQ 29548, read-out: Ki(nM) Compound 1. The method, then: as §1, §2
Prostaglandin-H2, sequence (P21731 whole entry): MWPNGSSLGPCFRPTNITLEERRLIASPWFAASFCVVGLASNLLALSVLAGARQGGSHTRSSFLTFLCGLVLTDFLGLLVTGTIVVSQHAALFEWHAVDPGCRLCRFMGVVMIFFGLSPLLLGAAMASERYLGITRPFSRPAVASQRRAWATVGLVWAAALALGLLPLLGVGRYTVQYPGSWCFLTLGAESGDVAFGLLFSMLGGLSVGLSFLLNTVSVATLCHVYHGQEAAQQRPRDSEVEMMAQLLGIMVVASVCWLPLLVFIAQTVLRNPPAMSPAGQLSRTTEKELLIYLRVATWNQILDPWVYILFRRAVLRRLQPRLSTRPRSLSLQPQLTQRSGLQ
The target of a further test is CGRP (Homo sapiens, UniProt O60894+Q16602). Nature of the test: Receptor binding CGRP. The conditions noted are these: radioligand [125I]-CGRPa, read-out: Ki(nM) Compound 1. The procedure:
as §1, §2

A further test deals with Muscarine-M5 (Homo sapiens, UniProt P08912). Briefly: Receptor binding Muscarine-M5. The conditions noted are these: radioligand [3H]-4-DAMP, read-out: Ki(nM) Compound 1. The procedure:
as §1, §2

For a further test, the target named is 5-HT6 (Homo sapiens, UniProt P50406). Nature of the test: Receptor binding 5-HT6. The note with it: radioligand [3H]-LSD, read-out: Ki(nM) Compound 1. The method, then:
as §1, §2

The target in the next test is Glycine strychn. insens. (Rattus norvegicus, UniProt P35439). Nature of the test: Receptor binding Glycine strychn. insens. The note with it: radioligand [3H]-MDL105519, read-out: Ki(nM) Compound 1. The method, then:
as §1, §2

Another test addresses Muscarine-M4 (Homo sapiens, UniProt P08173). Nature of the test: Receptor binding Muscarine-M4. The note with it: radioligand [3H]-4-DAMP, read-out: Ki(nM) Compound 1. The procedure:
as §1, §2

For test [1], the system named is rats with unilateral 6-OHDA lesions. Briefly: Turning experiments in animals with unilateral 6-hydroxydopamine lesions of the substantia nigra compacta. The class given is in vivo. The procedure:
Male rats (Wistar, Harlan, Netherlands; 400-500 g at time of experiment) are housed in a temperature (20-21±2° C.) and humidity controlled environment and receive water ad libitum except during experimental sessions. Food is restricted to approximately 15 g per rat per day. A 12-hour light-dark cycle (lights on 07.00-19.00 hour) is used.
Unilateral 6-hydroxydopamine (6-OH DA) lesions of the substantia nigra zona compacta are performed using a stereotaxic procedure. One hour prior to surgery, desmethyl-imipramine (20 mg/kg, i.p.) is administered to protect noradrenergic neurons. Rats are anaesthetized with a 3% halothane+0.8 l/min N2O+0.8 l/min O2-gas mixture at 1013 mbar. During surgery the gas mixture is adjusted to 1.75-2% halothane, 0.6 l/min N2O and 0.6 l/min O2. The incisor bar of the stereotaxic instrument (Kopf, Calif., USA) iss set at −3.3 mm, a burr hole was drilled over the substantia nigra pars compacta and 3 μl of a 6-OHDA solution (3.33 mg/ml) is injected (flow rate=0.75 μl/min; the needle is left in place for 4 minutes prior to withdrawal). Coordinates for this procedure are: anterior posterior +3.2 mm from the interaural line; medial/lateral +1.8 mm from the midline and ventral −8.2 from the skull surface. Animals are allowed to recover for approximately 2 weeks prior to testing. Good turning rats are defined as those which elicited at least 20 contralateral turns following amphetamine (2.5 mg/kg sc) in the 5 min time epoch beginning 25 min after administration and a mean of at least 20 contralateral turns recorded over a 30 min period after administration of apomorphine (0.25 mg/kg s.c.). Regular testing with apomorphine (0.1 or 0.25 mg/kg s.c.) is carried out to ensure the reliability of the animals in this procedure.
Eight commercially available (TSE systems Bad Homburg, Germany) ‘rotameter’ units (transparent plastic bowls; 57×55×52 cm) are used for testing. The rats are harnessed and tethered to a rotation sensor interfaced to an IBM compatible personal computer (using the TSE Rotameter Software v. 1.11, TSE systems Bad Homburg, Germany) which registers clockwise or counterclockwise movement. An internal software rotation filter of 10 is used.
Following statistical randomization of the treatment groups rats are pretreated with compounds of the invention (0.1-3 mg/kg p.o.) or vehicle (2 ml/kg) and placed in the rotameters the contralateral rotational behaviour is then measured. In further studies the effects of L-DOPA (1-10 mg/kg p.o.) are assessed on contralateral rotations. The peripheral decarboxylase inhibitor benserazide (30 mg/kg i.p.) can be used. In combination studies a range of L-DOPA (1-10) doses and doses of compounds of the invention (0.1-3 mg/kg p.o.) can be combined.

Another test concerns the target α1A-adrenergic (Rattus norvegicus, UniProt P43140). Briefly: Receptor binding α1A-adrenergic. The conditions noted are these: radioligand [3H]-prazosin, read-out: Ki(nM) Compound 1. The procedure:
as §1, §2

The target in a further test is Muscarine-M3 (Homo sapiens, UniProt P20309). Briefly: Receptor binding Muscarine-M3. The note with it: radioligand [3H]-4-DAMP, read-out: Ki(nM) Compound 1. The method, then: as §1, §2
Muscarine-M3, sequence (P20309 whole entry): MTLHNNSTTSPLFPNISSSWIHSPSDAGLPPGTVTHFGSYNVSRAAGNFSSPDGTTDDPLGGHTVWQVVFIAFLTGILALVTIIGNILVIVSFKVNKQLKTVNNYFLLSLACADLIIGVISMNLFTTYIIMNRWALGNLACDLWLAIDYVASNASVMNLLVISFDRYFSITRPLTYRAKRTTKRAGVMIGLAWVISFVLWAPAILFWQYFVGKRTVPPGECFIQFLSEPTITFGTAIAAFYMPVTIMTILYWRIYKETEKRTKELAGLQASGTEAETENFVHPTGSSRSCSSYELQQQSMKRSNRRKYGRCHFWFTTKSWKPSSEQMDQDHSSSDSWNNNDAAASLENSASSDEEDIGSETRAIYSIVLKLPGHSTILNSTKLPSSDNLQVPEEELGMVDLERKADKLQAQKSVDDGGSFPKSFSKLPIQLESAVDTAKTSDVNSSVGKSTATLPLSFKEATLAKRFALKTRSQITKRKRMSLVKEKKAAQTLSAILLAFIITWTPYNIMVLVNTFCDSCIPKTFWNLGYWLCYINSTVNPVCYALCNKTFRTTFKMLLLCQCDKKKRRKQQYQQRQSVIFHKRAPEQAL

Marks after values point to notes of the source that are not given here.

Neurokinin-NK1, sequence (P25103 whole entry): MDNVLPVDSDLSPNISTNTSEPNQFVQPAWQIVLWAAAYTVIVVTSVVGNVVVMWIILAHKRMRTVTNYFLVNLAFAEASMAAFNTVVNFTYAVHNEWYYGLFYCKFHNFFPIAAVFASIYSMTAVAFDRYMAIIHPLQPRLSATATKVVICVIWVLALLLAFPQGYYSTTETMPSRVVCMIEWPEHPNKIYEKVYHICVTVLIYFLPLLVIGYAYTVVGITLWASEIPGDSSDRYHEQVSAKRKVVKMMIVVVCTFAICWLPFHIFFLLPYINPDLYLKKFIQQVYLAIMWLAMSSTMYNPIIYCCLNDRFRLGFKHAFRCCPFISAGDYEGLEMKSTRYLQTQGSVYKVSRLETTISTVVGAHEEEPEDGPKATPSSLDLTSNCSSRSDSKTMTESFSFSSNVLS
Muscarine-M5, sequence (P08912 whole entry): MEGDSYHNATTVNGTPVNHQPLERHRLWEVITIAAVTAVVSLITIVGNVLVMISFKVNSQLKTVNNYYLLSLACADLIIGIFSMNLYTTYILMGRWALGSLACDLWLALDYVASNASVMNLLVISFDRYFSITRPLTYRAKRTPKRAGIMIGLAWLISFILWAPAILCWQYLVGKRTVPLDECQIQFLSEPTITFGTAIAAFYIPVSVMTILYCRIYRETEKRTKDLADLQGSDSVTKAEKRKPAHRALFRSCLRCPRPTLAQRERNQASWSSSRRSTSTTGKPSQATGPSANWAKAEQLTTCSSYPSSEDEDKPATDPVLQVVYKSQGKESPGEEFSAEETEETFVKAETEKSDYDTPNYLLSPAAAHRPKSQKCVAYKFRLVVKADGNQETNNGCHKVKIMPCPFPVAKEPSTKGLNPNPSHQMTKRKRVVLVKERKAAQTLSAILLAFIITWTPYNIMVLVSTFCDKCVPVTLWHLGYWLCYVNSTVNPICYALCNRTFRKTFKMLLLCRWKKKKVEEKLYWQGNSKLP
angiotensin-AT2, sequence (P50052 whole entry): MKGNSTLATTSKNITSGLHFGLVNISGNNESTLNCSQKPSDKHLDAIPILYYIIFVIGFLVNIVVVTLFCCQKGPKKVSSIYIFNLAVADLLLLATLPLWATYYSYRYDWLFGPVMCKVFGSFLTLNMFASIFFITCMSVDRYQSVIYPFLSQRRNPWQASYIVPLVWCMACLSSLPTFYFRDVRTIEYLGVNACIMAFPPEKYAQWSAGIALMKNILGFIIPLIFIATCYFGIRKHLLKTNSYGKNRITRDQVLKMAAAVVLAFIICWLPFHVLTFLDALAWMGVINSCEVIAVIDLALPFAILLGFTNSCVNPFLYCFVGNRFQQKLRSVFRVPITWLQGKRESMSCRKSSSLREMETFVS
CGRP, sequence (Q16602 23-461): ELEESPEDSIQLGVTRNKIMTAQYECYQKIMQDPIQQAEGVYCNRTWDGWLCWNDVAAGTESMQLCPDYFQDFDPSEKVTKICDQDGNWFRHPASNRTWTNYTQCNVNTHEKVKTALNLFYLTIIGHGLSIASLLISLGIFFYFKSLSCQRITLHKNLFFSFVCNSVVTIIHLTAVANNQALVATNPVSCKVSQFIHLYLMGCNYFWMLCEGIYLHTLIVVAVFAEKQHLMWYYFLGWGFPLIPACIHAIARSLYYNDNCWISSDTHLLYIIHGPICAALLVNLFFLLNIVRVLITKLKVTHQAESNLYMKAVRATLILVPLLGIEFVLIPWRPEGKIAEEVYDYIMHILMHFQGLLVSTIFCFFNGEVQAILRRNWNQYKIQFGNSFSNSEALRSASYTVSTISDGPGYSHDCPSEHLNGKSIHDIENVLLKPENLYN
CGRP, sequence (O60894 27-148): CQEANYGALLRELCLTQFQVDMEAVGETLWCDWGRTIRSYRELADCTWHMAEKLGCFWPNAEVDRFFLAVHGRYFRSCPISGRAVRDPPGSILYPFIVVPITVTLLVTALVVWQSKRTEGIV
Galanin-GAL2, sequence (O43603 whole entry): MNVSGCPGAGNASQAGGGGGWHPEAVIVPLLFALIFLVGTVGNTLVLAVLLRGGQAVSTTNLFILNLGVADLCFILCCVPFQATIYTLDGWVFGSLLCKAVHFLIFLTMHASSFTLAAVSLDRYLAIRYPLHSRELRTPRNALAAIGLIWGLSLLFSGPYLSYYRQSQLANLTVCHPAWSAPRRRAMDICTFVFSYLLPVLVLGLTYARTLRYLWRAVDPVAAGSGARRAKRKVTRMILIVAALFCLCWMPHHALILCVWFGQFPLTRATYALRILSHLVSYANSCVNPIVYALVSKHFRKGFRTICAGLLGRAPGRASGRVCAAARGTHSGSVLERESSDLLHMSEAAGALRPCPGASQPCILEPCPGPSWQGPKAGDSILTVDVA
α1A-adrenergic, sequence (P43140 whole entry): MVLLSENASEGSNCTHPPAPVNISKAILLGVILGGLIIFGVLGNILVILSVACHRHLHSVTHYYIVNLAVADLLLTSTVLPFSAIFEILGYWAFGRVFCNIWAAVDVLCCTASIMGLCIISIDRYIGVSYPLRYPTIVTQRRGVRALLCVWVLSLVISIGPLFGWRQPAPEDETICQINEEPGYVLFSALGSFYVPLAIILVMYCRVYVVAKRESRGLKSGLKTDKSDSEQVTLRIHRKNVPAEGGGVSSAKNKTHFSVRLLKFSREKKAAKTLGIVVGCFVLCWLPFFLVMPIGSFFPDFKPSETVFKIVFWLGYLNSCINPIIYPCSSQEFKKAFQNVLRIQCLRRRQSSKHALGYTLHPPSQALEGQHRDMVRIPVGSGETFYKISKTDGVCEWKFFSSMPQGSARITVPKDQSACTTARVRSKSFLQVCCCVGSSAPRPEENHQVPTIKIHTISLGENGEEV
Histamine-H3, sequence (Q9QYN8 whole entry): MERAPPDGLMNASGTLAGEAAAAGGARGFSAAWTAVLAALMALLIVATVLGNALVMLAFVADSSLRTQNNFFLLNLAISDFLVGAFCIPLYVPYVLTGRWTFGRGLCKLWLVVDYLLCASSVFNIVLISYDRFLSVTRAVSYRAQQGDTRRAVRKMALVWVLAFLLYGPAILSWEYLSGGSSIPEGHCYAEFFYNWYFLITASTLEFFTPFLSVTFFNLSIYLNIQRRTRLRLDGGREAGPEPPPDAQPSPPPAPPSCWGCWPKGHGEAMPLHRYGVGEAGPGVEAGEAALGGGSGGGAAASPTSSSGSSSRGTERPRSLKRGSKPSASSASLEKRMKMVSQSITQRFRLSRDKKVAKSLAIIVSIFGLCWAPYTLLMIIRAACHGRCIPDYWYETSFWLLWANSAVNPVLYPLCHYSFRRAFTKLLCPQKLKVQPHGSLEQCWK
5-HT6, sequence (P50406 whole entry): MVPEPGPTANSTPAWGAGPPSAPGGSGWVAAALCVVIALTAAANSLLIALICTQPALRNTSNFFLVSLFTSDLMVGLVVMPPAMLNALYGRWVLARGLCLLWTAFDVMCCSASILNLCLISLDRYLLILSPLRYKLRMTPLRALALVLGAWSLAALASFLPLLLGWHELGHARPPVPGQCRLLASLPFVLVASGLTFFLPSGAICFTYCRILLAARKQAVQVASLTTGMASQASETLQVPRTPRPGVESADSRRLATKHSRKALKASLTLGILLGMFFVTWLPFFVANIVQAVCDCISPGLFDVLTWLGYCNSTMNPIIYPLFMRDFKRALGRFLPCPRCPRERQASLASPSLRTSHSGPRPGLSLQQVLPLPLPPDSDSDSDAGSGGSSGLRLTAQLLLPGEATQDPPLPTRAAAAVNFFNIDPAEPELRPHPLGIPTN

On to `Nc1cc2cccc(N3CCNCC3)c2oc1=O` [Compound 1, 3-amino-8-(1-piperazinyl)-2H-1-benzopyran-2-one], for which the Ki at nicotine was over 10000 nM; on Dopamine-D4 it was over 1000 nM; on Galanin-GAL2, over 1000 nM; on Neurokinin-NK1, over 1000 nM; at angiotensin-AT2, over 1000 nM; at 5-HT5 it was 100 nM. The Ki was over 10000 nM at Histamine-H3; over 1000 nM at Dopamine-D3; over 1000 nM on Prostaglandin-H2; over 1000 nM at CGRP; over 1000 nM at Muscarine-M5; over 1000 nM at 5-HT6. Further, the Ki at Glycine strychn. insens. was over 10000 nM; on Muscarine-M4 it was over 1000 nM; on α1A-adrenergic, 630 nM; on Muscarine-M3 it was over 1000 nM. Also, the “Mean number of turns (rotations contralateral to the direction of a 6-OHDA lesion)” value in test [1] (0.3 mg/kg p.o.) is given as 20.925; in test [1] (0.5 mg/kg p.o.), 22.988; in test [1] (0.75 mg/kg p.o.), 106.35*; in test [1] (1.0 mg/kg p.o.), 77.1*. The “minimal effective dose, contralateral rotation” value in [1] (p.o.) is 0.75 mg/kg.

The record behind these values is US20050215551A1, “1-[2H-1-benzopyran-2-one-8-yl]- piperazine derivatives for the treatment of movement disorders” (SOLVAY PHARMACEUTICALS B.V., priority 2004, published 2005).
